Literature values as cited in US20240382500A1, “DOPAMINE RECEPTOR AGONISTS OR ANGIOTENSIN RECEPTOR BLOCKERS OR COMBINATIONS THEREOF FOR COVID-19 SEQUELAE” (priority 2023, published 2024).

Tests used:
[1] = dosages up to 15 mg/day, subjects with early-stage Parkinson's disease
[2] = in vivo
[3] = 250 mg/day, characterized as a low dose
[4] = tested on: natural killer cells (NKCs)

CCOc1nc2cccc(C(=O)O)c2n1Cc1ccc(-c2ccccc2-c2nn[nH]n2)cc1 [Candesartan]
action of ANG II on ICAM-1 (ICAM-1): inhibit | HMGB1 (HMGB1): lower | microglial phagocytosis (microglia): strengthens

Cc1cc(Oc2ncccc2C(F)(F)F)ccc1-c1c(C)c(=O)[nH]c(=O)n1C [PF-06649751]
motor symptoms [1]: significant improvement | safety and tolerability in human subjects [2]: safe and well tolerated

Oc1cc2c(cc1O)C(c1ccccc1)CNCC2 (centres unmarked) [SKF38393]
clinical benefit in schizophrenia [3]: failed to show a clinical benefit | tolerability in preclinical studies: well tolerated | NKC cytotoxicity [4]: augments
